How the values were obtained:
[1] = potent nucleophile 2-mercaptopyridine; 37° C., 24 h
[2] = Poly(S-alkyl-L-methionine) stability studies in aqueous buffers; format: physicochemical; conditions: aqueous buffers ranging in pH from 5 to 9; 37° C., 24 h; S-alkyl-Met/Met ratio by 1H NMR
Experimental: The mixture was incubated on a 37° C. H2O bath for 24 h. […] The retentate was lyophilized.

Substance: Poly(S-(3-azido-2-hydroxypropyl)-L-methionine sulfonium chloride) [compound 4]
- stability against dealkylation by nucleophile [1]: quite stable
- stability in aqueous buffers [2]: good stability
